Where “and” joins values, the source holds several entries; their conditions need not be identical. Identical values can stand only once. Entries after “also recorded” stand apart in the source; their conditions may differ. Counter-ions that a name gives are not always drawn. Like-named read-outs stand apart in the source and are kept apart here.
Key:
LMH cells [1] = assay: Fluorescence-based in vitro drug screening assay; type: cell-based, chicken; details: for Fluorescence reading / Fluorescence readings compared with the […] AIA control: 18–24 h; for Fluorescence reading: ex 410/em 625 nm; for Fluorescence readings compared with the […] AIA control: in the presence of DFO, 0–1 mM; for Porphyrogenicity / PP accumulation (authors' conclusion in words): with and without DFO
[2] = cited from earlier work; for Maximal plasma concentration: ref 39 (Nagelschmitz et al.), listed as aspirin
human liver organoids = assay: Fluorescence-based in vitro drug screening assay in human liver organoids; type: cell-based; details: approximately 100 human liver organoids, 0.5 mM compound + DFO, 18–24 h
LMH cells [3] = assay: ATPLite cytotoxicity assay in LMH cells; details: 1 mM compound in the presence of DFO
HepG2 cells = assay: Fluorescence-based in vitro drug screening assay; type: cell-based, human; details: 1 mM compound + DFO, 18–24 h
HepG2 spheroids = assay: Fluorescence-based in vitro drug screening assay in HepG2 spheroids; type: cell-based, human; details: for Fluorescence reading compared with background: HepG2 organoids/spheroids, 0.5 mM compound with and without DFO
[4] = ATPLite cytotoxicity assay in LMH cells; details: chicken, CC50, LMH cells, 18–24 h, presence of 250 μM DFO
[5] = system: hydroxymethylbilane synthase; details: rat livers; cited from earlier work
[6] = system: hydroxymethylbilane synthase; details: human erythrocytes; cited from earlier work
[7] = LMH cells, […] compound + 250 μM DFO
[8] = humans, typically used oral doses
[9] = 1 mM compound in the presence of DFO
[10] = LMH cells, 1 mM compound + 250 μM DFO

SMILES: C#CC1(O)CC[C@H]2[C@@H]3CCC4=CC(=O)CC[C@@H]4[C@H]3CC[C@@]21CC (mixture of isomers) [norgestrel, D (‐) norgestrel]
- Fluorescence reading (LMH cells [1]; [7]): 6890 ± 106 RFU
- Fluorescence readings compared with the […] AIA control (LMH cells [1]; LMH cells): above the 0.314‐mM AIA control
- Porphyrogenicity / PP accumulation (authors' conclusion in words) (LMH cells [1]; LMH cells): porphyrogenic; also recorded: notable accumulation of PP
- Maximal serum concentration [2, 8]: approximately 14.1 ng/ml

SMILES: NCC(=O)CCC(=O)O [ALA, 5‐aminolevulinic acid]
- Fluorescence reading (human liver organoids): above 1600 RFU
- Fold higher fluorescence readings in LMH cells than in HepG2 cells (LMH cells [1]; [9]): approximately 2.1 fold
- Fold higher fluorescence readings in LMH cells than in HepG2 organoids (LMH cells [1]; [9]): ~1.9 fold
- Fold higher fluorescence readings in LMH cells than in human liver organoids (LMH cells [1]; [9]): ~7 fold
- Fluorescence reading (LMH cells [1]; [10]): above 10 000 RFU
- Cytotoxic effect (LMH cells [3]): mild cytotoxic effects
- Fluorescence reading (HepG2 cells): above 5000 RFU
- Fluorescence reading (HepG2 spheroids; approximately 200 HepG2 spheroids, 0.5 mM compound + DFO, 18–24 h): above 6000 RFU

SMILES: CC(=O)Nc1ccc(O)cc1 [acetaminophen]
- Porphyrogenicity / PP accumulation (authors' conclusion in words) (LMH cells [1]; LMH cells): not porphyrogenic
- Maximum plasma concentration ([2]; oral 1000-mg tablet, ref 40 (Hong et al.)): approximately 8.79 mg/L and ~0.058 mM

SMILES: CC(=O)Oc1ccccc1C(=O)O [acetylsalicylic acid]
- Porphyrogenicity / PP accumulation (authors' conclusion in words) (LMH cells [1]; LMH cells): not porphyrogenic
- Maximal plasma concentration ([2]; intravenous 500-mg dose): 54.25 mg/L and 0.30 mM
- Maximal plasma concentration ([2]; oral 500-mg dose): 4.84 mg/L and 0.027 mM

SMILES: C[C@](N)(Cc1ccc(O)c(O)c1)C(=O)O [alpha‐methyldopa]
- Porphyrogenicity / PP accumulation (authors' conclusion in words) (LMH cells [1]; LMH cells): did not lead to an appreciable accumulation of PP
- CC50 [4]: 164 µM

SMILES: CCN(CCO)CCCC(C)Nc1ccnc2cc(Cl)ccc12 (stereo not drawn) [hydroxychloroquine, hydroxychloroquine sulfate]
- Porphyrogenicity / PP accumulation (authors' conclusion in words) (LMH cells [1]; LMH cells): does not upregulate hepatic ALAS‐1
- CC50 [4]: 381 µM

SMILES: CCC1(c2ccccc2)C(=O)NC(=O)NC1=O [phenobarbital]
- Fluorescence reading (LMH cells [1]; [10]): 7513 ± 48 RFU
- Fluorescence readings compared with the AIA positive control (LMH cells [1]; LMH cells, concentrations around 0.024 mM): close to the AIA positive control
- Fluorescence readings compared with the […] AIA control (LMH cells [1]; LMH cells): above the 0.314‐mM AIA control
- Maximal serum concentration ([2]; 2.9-mg/kg oral dose, ref 43 (Nelson et al.)): approximately 5.5 mg/L; also recorded: around 0.024 mM
- Fluorescence reading compared with background (HepG2 spheroids): failed to produce fluorescence readings above background

SMILES: O=C1NC(=O)C(c2ccccc2)(c2ccccc2)N1 [phenytoin sodium]
- Maximal serum concentration ([2]; humans, oral 300-mg dose, ref 44 (Suthisisang et al.)): approximately 1.98 µg/ml and ~7.22 µM

SMILES: O=C1NC(=O)C(c2ccccc2)(c2ccccc2)N1 [phenytoin]
- Fluorescence reading (LMH cells [1]; [7]): 5913 ± 190 RFU
- Fluorescence readings compared with the […] AIA control (LMH cells [1]; LMH cells): above the 0.314‐mM AIA control
- Porphyrogenicity / PP accumulation (authors' conclusion in words) (LMH cells [1]; LMH cells): porphyrogenic
- Fluorescence reading compared with background (HepG2 spheroids): failed to produce fluorescence readings above background

SMILES: CCCC(CCC)C(=O)O [sodium valproate]
- Porphyrogenicity / PP accumulation (authors' conclusion in words) (LMH cells [1]; LMH cells): porphyrogenic

SMILES: Cc1noc(NS(=O)(=O)c2ccc(N)cc2)c1C [sulfisoxazole]
- Effect on the activity of hydroxymethylbilane synthase [5]: did not affect the activity
- Effect on the activity of hydroxymethylbilane synthase [6]: did not affect the activity
- Porphyrogenicity / PP accumulation (authors' conclusion in words) (LMH cells [1]; LMH cells): neither of these drugs led to excess PP accumulation

SMILES: CCCC(CCC)C(=O)O [valproic acid]
- Maximal serum concentration ([2]; humans, typically used oral doses (norgestrel, valproic acid)): ~8.81 mM
- Maximal serum concentration [2, 8]: approximately 1271 mg/L

SMILES: CCCCC(=O)N(Cc1ccc(-c2ccccc2-c2nnn[nH]2)cc1)[C@H](C(=O)O)C(C)C [valsartan]
- Porphyrogenicity / PP accumulation (authors' conclusion in words) (LMH cells [1]; LMH cells): did not show evidence of porphyrogenicity

SMILES: C[C@]12CC[C@@H]3c4ccc(O)cc4CC[C@H]3[C@@H]1CC[C@@H]2O [β‐estradiol]
- Porphyrogenicity / PP accumulation (authors' conclusion in words) (LMH cells [1]; LMH cells): notable accumulation of PP
